From patent publication US20260263456A1, “TADALAFIL GASTRIC-SOLUBLE RAPID-RELEASE SOLID DISPERSION, TABLET, AND USE THEREOF” (Shenzhen Hanhui Pharmaceutical Technology Co., Ltd., priority 2023, published 2026) come the findings set out here.

A short description of data set [1]: Polymer and surfactant screening: solubility of solid dispersions in pH 1.0 and pH 6.8 media. The conditions noted are these: API alone, 2 mg/mL, one value across 5 min and 30 min. It counts as physicochemical. The procedure: In this implementation example, a micro-scale rotary evaporation method was employed to screen various types of polymers and surfactants, specifically in the context of the active pharmaceutical ingredient (API) ratio of polymer to surfactant.
Acetone was utilized to prepare a stock solution of the active pharmaceutical ingredient at a concentration of 5 mg/mL, a polymer stock solution at 10 mg/mL, and a surfactant stock solution at 10 mg/mL. These solutions were evenly mixed in two identical portions, then centrifuged and dried to create the solid dispersion.
To each sample tube, 1 mL of pH 1.0 and pH 6.8 media was added, and the samples were vortexed at room temperature to ensure complete dispersion. Samples were collected at 5 minutes and 30 minutes, then centrifuged, diluted, and the absorbance was measured to calculate solubility.

Data set [2] is described as follows: Solubility of tadalafil API in various solvents. Particulars: thermodynamic from solid, 25° C. and 60° C. It counts as physicochemical. The text has this:
A suitable amount of tadalafil was weighed and dissolved in various commonly used organic solvents to identify the most appropriate solvents for establishing UV methodology. The solvents utilized for preparing solid dispersions, along with the solubility of tadalafil, the active pharmaceutical ingredient, in different solvents, are presented in Table 4 below.

The term solubility denotes the dissolved amount per volume that the medium holds.

Values after ≈ are worked out from the molar mass of the structure shown.

As to `CN1CC(=O)N2[C@H](c3ccc4c(c3)OCO4)c3[nH]c4ccccc4c3C[C@@H]2C1=O` [Tadalafil], the “pH 1.0(Solubility mg/mL)” value in data set [1] (pH 1.0) was 0.002 mg/mL. Moreover, the “pH 6.8(Solubility mg/mL)” value in data set [1] (pH 6.8) amounted to 0.027 mg/mL. Also, the solubility in data set [2] (organic solvent or mixture, Acetone) is 10.2 to 16.9 mg/mL (≈ 26.1 to 43.5 mM); in data set [2] (organic solvent or mixture, Acetonitrile), 16 to 23.9 mg/mL (≈ 41 to 61.5 mM); in data set [2] (organic solvent or mixture, Anhydrous ethanol), under 10.8 mg/mL; in data set [2] (organic solvent or mixture, Dichloromethane), under 10.8 mg/mL; in data set [2] (organic solvent or mixture, Tetrahydrofuran), 23.8 to 47.6 mg/mL (≈ 61.2 to 122 mM); in data set [2] (pH 6.8 medium, aqueous buffer, pH 6.8), under 8.04 mg/mL.
